This note sets out measurements from patent publication US20090048295A1, “SUBSTITUTED 5,6,7,8-TETRAHYDROQUINOLINE DERIVATIVES, COMPOSITIONS, AND METHODS OF USE THEREOF” (priority 2007, published 2009).

The target of assay [1] is T1, C5a receptor (Homo sapiens, UniProt P21730).
T1 sequence (P21730 1-350): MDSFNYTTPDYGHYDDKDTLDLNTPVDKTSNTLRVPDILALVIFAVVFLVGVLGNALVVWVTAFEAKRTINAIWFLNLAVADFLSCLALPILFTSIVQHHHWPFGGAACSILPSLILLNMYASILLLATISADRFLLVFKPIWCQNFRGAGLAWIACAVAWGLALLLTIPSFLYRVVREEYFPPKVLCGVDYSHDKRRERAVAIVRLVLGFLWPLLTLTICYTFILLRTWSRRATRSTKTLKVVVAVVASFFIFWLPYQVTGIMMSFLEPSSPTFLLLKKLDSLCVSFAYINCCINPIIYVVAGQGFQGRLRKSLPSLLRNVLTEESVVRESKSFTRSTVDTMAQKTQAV
Put plainly: Calcium Mobilization Assay (C5a-induced Ca2+ mobilization, FLIPR, differentiated U937 cells). Conditions: […] recombinant human C5a, 20 min pre-incubation, multiple values = duplicate experiments, read-out: C5a Induced Ca Mobil. Average IC50. The arrangement: endogenous in cells; host or cells: U937 cells differentiated with dibutyryl cAMP. Format: cell-based. A digest of the protocol:
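Differentiated U937 cells (1 mM dibutyryl cAMP, 2–3 days) loaded with Fluo-3AM, pre-incubated with compound 20 min at room temperature (1% DMSO), then stimulated with 1.5 nM recombinant human C5a. Intracellular Ca2+ fluorescence recorded on FLIPR each second to 2 min post-addition; maximal fluorescence used.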

Assay [2] deals with T1, C5a receptor. Briefly: [125I]-C5a Radioligand Binding Assay (competition binding, differentiated U937 cells).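 Further: cells preincubated with compound 30 min at room temperature, then 60 min at 4 °C with radioligand, bound counts read by scintillation, nonspecific binding defined with 100 nM C5a.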 Conditions: [125I]-C5a 0.05 nM, U937 cells, multiple values = duplicate experiments.
Assay [3] addresses T1, C5a receptor. Briefly: biochemical.

pIC50, pKi: −log10 of the molar value.

As for `CCc1cccc(CC)c1-c1cc(OC)c2c([n+]1[O-])CCCC2N(CC)c1cccc2ccccc12` (racemic) [Compound 19, (±)-[2-(2,6-Diethyl-phenyl)-4-methoxy-1-oxy-5,6,7,8-tetrahydro-quinolin-5-yl]-ethyl-naphthlen-1-yl-amine], the pIC50 at C5a receptor [1] was 6.79. The inhibition at 1 µM on C5a receptor [2] (read-out: [125I]-C5a Binding % Inhibition 1 μM, test compound 1 μM) was 81%. For the same compound, the inhibition at 10 µM at C5a receptor [2] (read-out: [125I]-C5a Binding % Inhibition 10 μM, test compound 10 μM) turned out to be 86%. Further, the “[125I]-C5a Binding % Inhibition 1 μM” value on C5a receptor [2] (test compound 1 μM) is recorded as 82%. For the same compound, the “[125I]-C5a Binding % Inhibition 10 μM” value on C5a receptor [2] (test compound 10 μM) worked out at 98%. On C5a receptor [3], this compound had a pKi of 6.97.
